PubChem BioAssay AID248 (DTP/NCI, 2004)
“And” between values parts separate entries of the source, which are not always exact repeats. Identical values can stand only once. Toxic doses and inconclusive results are not listed. Cut-off read from the data, not from the text of the source: active = T/C of 150% or more; inactive = T/C below 125%.

Test system: L1210 leukemia ip in BDF1 mice, survival T/C
Experiment: NCI In Vivo Anticancer Drug Screen. Data for tumor model L1210 Leukemia (intraperitoneal) in B6D2F1 (BDF1) mice
Conditions: endpoint: mean survival time, higher = longer survival
Method in brief: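 Antitumor effect is assessed in tumor-bearing animals. Survival in the compound arm is compared with a vehicle-dosed control arm and expressed as their quotient.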

[1] = dose: 25.0 mg/kg/injection, schedule: Q04DX003 (ip), vehicle: saline
[2] = dose: 100.0 mg/kg/injection, schedule: Q04DX003 (ip), vehicle: saline
[3] = dose: 200.0 mg/kg/injection, schedule: Q04DX003 (ip), vehicle: saline
[4] = dose: 100.0 mg/kg/injection, schedule: Q04DX003 (ip), vehicle: Klucel (hydroxypropylcellulose) (HPC)
[5] = dose: 200.0 mg/kg/injection, schedule: Q04DX003 (ip), vehicle: Klucel (hydroxypropylcellulose) (HPC)
[6] = dose: 400.0 mg/kg/injection, schedule: Q04DX003 (ip), vehicle: Klucel (hydroxypropylcellulose) (HPC)
[7] = dose: 100.0 mg/kg/injection, schedule: Q01DX001 (ip), vehicle: Klucel (hydroxypropylcellulose) (HPC)
[8] = dose: 200.0 mg/kg/injection, schedule: Q01DX001 (ip), vehicle: Klucel (hydroxypropylcellulose) (HPC)
[9] = dose: 400.0 mg/kg/injection, schedule: Q01DX001 (ip), vehicle: Klucel (hydroxypropylcellulose) (HPC)
[10] = dose: 50.0 mg/kg/injection, schedule: Q01DX001 (ip), vehicle: carboxymethylcellulose (CMC)
[11] = dose: 100.0 mg/kg/injection, schedule: Q01DX001 (ip), vehicle: carboxymethylcellulose (CMC)
[12] = dose: 200.0 mg/kg/injection, schedule: Q01DX001 (ip), vehicle: carboxymethylcellulose (CMC)
[13] = dose: 400.0 mg/kg/injection, schedule: Q01DX001 (ip), vehicle: carboxymethylcellulose (CMC)
[14] = dose: 100.0 mg/kg/injection, schedule: Q04DX002 (ip), vehicle: saline with Tween-80
[15] = dose: 200.0 mg/kg/injection, schedule: Q04DX002 (ip), vehicle: saline with Tween-80
[16] = dose: 400.0 mg/kg/injection, schedule: Q04DX002 (ip), vehicle: saline with Tween-80

Measured: T/C

O=C(COc1cc2ccccc2cc1C(=O)O)NCc1ccc(Cl)cc1
inactive: [1] 96 % of control | dose: 50.0 mg/kg/injection, schedule: Q04DX003 (ip), vehicle: saline 100 % of control | [2] 101 % of control | [3] 101 % of control

O=C(Nc1cccc(Br)c1)c1ccc([N+](=O)[O-])s1
inactive: dose: 50.0 mg/kg/injection, schedule: Q01DX005 (ip), vehicle: water 89 % of control | dose: 100.0 mg/kg/injection, schedule: Q01DX005 (ip), vehicle: water 89 % of control | dose: 200.0 mg/kg/injection, schedule: Q01DX005 (ip), vehicle: water 89 % of control | dose: 400.0 mg/kg/injection, schedule: Q01DX005 (ip), vehicle: water 87 % of control

COC1=NS(=O)(=O)CC(N2C(=O)CCC2=O)O1 (configuration not stated)
inactive: [4] 98 % of control | [5] 109 % of control | [6] 101 % of control

CCS(=O)(=O)CCNC(=O)NS(=O)(=O)c1ccc(C)cc1
inactive: dose: 100.0 mg/kg/injection, schedule: Q04DX003 (ip), vehicle: saline with Tween-80 97 % of control | dose: 200.0 mg/kg/injection, schedule: Q04DX003 (ip), vehicle: saline with Tween-80 97 % of control | dose: 400.0 mg/kg/injection, schedule: Q04DX003 (ip), vehicle: saline with Tween-80 90 % of control

CCOC(CCc1c(-c2ccccc2)nc(N)[nH]c1=O)OCC
inactive: dose: 100.0 mg/kg/injection, schedule: Q01DX009 (ip), vehicle: other 110 % of control | dose: 200.0 mg/kg/injection, schedule: Q01DX009 (ip), vehicle: other 102 % of control | dose: 400.0 mg/kg/injection, schedule: Q01DX009 (ip), vehicle: other 93 % of control

Nc1ccc2c(c1)C(=O)c1c(F)cccc1-2
inactive: dose: 100.0 mg/kg/injection, schedule: Q04DX003 (ip), vehicle: acetone 98 % of control | dose: 200.0 mg/kg/injection, schedule: Q04DX003 (ip), vehicle: acetone 94 % of control | dose: 400.0 mg/kg/injection, schedule: Q04DX003 (ip), vehicle: acetone 91 % of control

O=C(O)C1(C(=O)O)CCC1.[NH2-].[NH2-].[Pt+2]
inactive: dose: 2.0 mg/kg/injection, schedule: Q01DX009 (ip), vehicle: saline 97 % of control | dose: 4.0 mg/kg/injection, schedule: Q01DX001 (ip), vehicle: saline 100 % of control | dose: 4.0 mg/kg/injection, schedule: Q01DX009 (ip), vehicle: saline 100 % of control | dose: 8.0 mg/kg/injection, schedule: Q01DX001 (ip), vehicle: saline 100 % of control | dose: 8.0 mg/kg/injection, schedule: Q01DX009 (ip), vehicle: saline 108 % of control | dose: 16.0 mg/kg/injection, schedule: Q01DX001 (ip), vehicle: saline 102 % of control | dose: 16.0 mg/kg/injection, schedule: Q01DX009 (ip), vehicle: saline 119 % of control | [1] 110 % of control and 113 % of control | [3] 97 % of control and 105 % of control
active: dose: 64.0 mg/kg/injection, schedule: Q01DX009 (ip), vehicle: saline 171 % of control | [2] 154 % of control and 176 % of control | dose: 128.0 mg/kg/injection, schedule: Q01DX001 (ip), vehicle: saline 152 % of control

Cc1cccc(C)c1Oc1ccc([N+](=O)[O-])cc1[N+](=O)[O-]
inactive: [7] 105 % of control | [8] 112 % of control | [9] 117 % of control

BrC12CC3CC(C1)CC(Br)(C3)C2
inactive: [10] 96 % of control | [11] 93 % of control | [12] 93 % of control | [13] 102 % of control

Oc1ccccc1Sc1ccccc1O
inactive: dose: 100.0 mg/kg/injection, schedule: Q01DX001 (ip), vehicle: saline 92 % of control | dose: 400.0 mg/kg/injection, schedule: Q01DX001 (ip), vehicle: saline 97 % of control

Cc1ccccc1NP1(=O)OCCCN1Cc1ccccc1Cl (configuration not stated)
inactive: [10] 104 % of control | [11] 96 % of control | [12] 98 % of control | [13] 95 % of control

CC(=NC1CC(C)CC(C)(C)C1)C1CC1 (configuration not stated)
inactive: dose: 55.0 mg/kg/injection, schedule: Q01DX Z (ip), vehicle: methylcellulose (MC) 100 % of control | dose: 83.0 mg/kg/injection, schedule: Q01DX Z (ip), vehicle: methylcellulose (MC) 89 % of control | dose: 125.0 mg/kg/injection, schedule: Q01DX Z (ip), vehicle: methylcellulose (MC) 100 % of control

O=C(CCl)N1C(=O)CC(c2ccccc2)C1=O (configuration not stated)
inactive: [14] 101 % of control | [15] 97 % of control | [16] 95 % of control

c1ccc(C2=NCCN=C2c2ccccc2)cc1
inactive: [4] 97 % of control | [5] 97 % of control | [6] 93 % of control

NCCNC12CC3CC(CC(C3)C1)C2
inactive: dose: 100.0 mg/kg/injection, schedule: Q04DX002 (ip), vehicle: saline 113 % of control | dose: 200.0 mg/kg/injection, schedule: Q04DX002 (ip), vehicle: saline 107 % of control

Cc1cc(NC(=O)Nc2cccc(C3=NCCN3)c2)ccc1NC(=O)Nc1cccc(C2=NCCN2)c1
active: dose: 240.0 mg/kg/injection, schedule: Q01DX Z (ip), vehicle: saline 171 % of control | dose: 480.0 mg/kg/injection, schedule: Q01DX Z (ip), vehicle: saline 192 % of control
inactive: dose: 15.0 mg/kg/injection, schedule: Q01DX Z (ip), vehicle: saline 93 % of control | dose: 30.0 mg/kg/injection, schedule: Q01DX Z (ip), vehicle: saline 103 % of control | dose: 60.0 mg/kg/injection, schedule: Q01DX Z (ip), vehicle: saline 109 % of control

CN(N=O)C(=O)NN(C)C(=O)N(C)N=O
inactive: [10] 114 % of control | [12] 121 % of control | dose: 300.0 mg/kg/injection, schedule: Q01DX001 (ip), vehicle: carboxymethylcellulose (CMC) 114 % of control | [13] 121 % of control

Nc1ncnc2c(-c3ccccc3)c[nH]c12
inactive: [7] 102 % of control | [4] 100 % of control | [8] 97 % of control | [5] 100 % of control | [9] 91 % of control | [6] 104 % of control

O=C(Nc1ccc(C2=NCCN2)cc1)c1cccc(C(=O)Nc2ccc(C3=NCCN3)cc2)c1Cl
active: dose: 18.0 mg/kg/injection, schedule: Q01DX Z (ip), vehicle: carboxymethylcellulose (CMC) 155 % of control | dose: 25.0 mg/kg/injection, schedule: Q01DX Z (ip), vehicle: carboxymethylcellulose (CMC) 211 % of control | dose: 37.0 mg/kg/injection, schedule: Q01DX Z (ip), vehicle: carboxymethylcellulose (CMC) 184 % of control
inactive: dose: 4.5 mg/kg/injection, schedule: Q01DX Z (ip), vehicle: carboxymethylcellulose (CMC) 105 % of control | dose: 9.0 mg/kg/injection, schedule: Q01DX Z (ip), vehicle: carboxymethylcellulose (CMC) 117 % of control | dose: 62.0 mg/kg/injection, schedule: Q01DX Z (oral), vehicle: carboxymethylcellulose (CMC) 109 % of control | dose: 125.0 mg/kg/injection, schedule: Q01DX Z (oral), vehicle: carboxymethylcellulose (CMC) 118 % of control | dose: 250.0 mg/kg/injection, schedule: Q01DX Z (oral), vehicle: carboxymethylcellulose (CMC) 118 % of control | dose: 500.0 mg/kg/injection, schedule: Q01DX Z (oral), vehicle: carboxymethylcellulose (CMC) 98 % of control

O=C1c2ccccc2C(=O)N1OCCCCCCON1C(=O)c2ccccc2C1=O
inactive: [2] 92 % of control | [3] 94 % of control | dose: 400.0 mg/kg/injection, schedule: Q04DX003 (ip), vehicle: saline 97 % of control

CC(=O)OCCC/C(=C/c1cc2ccccc2c2ccccc12)[N+](=O)[O-]
inactive: [11] 95 % of control | [12] 95 % of control | [13] 97 % of control

CC(C)(C)N(Cl)C#N
inactive: [14] 93 % of control | [15] 97 % of control | [16] 97 % of control

C[C@]12CCC(=O)C=C1CC[C@@H]1[C@@H]2[C@@H](O)C[C@@]2(C)[C@H]1CC[C@]2(C)O
inactive: dose: 50.0 mg/kg/injection, schedule: Q01DX009 (ip), vehicle: saline 91 % of control | dose: 100.0 mg/kg/injection, schedule: Q01DX009 (ip), vehicle: saline 97 % of control | dose: 200.0 mg/kg/injection, schedule: Q01DX009 (ip), vehicle: saline 102 % of control
